From PubChem BioAssay (NCI)
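Five concentrations, 48 hours, 96-well plates. Abbreviation: GI50, concentration required for 50% inhibition of growth. TGI denotes the concentration required for complete inhibition of growth.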

Tests used:
Test in all cases: growth of human tumour cells (NCI), 48 h
[1] = test system: UACC-257 melanoma
[2] = test system: SW-620 colon
[3] = test system: DU-145 prostate
[4] = test system: PC-3 prostate
[5] = test system: A549 NSCLC
[6] = test system: KM12 colon
[7] = test system: OVCAR-4 ovarian
[8] = test system: SNB-75 CNS
[9] = test system: NCI-H226 lung
[10] = test system: HOP-92 NSCLC

Row | SMILES | GI50 [1] | TGI [1] | GI50 [2] | TGI [2] | GI50 [3] | TGI [3] | GI50 [4] | TGI [4] | GI50 [5] | TGI [5] | GI50 [6] | TGI [6] | GI50 [7] | TGI [7] | GI50 [8] | TGI [8] | GI50 [9] | TGI [9] | GI50 [10] | TGI [10]
1 | CC1=C[C@H]2c3c(c(O)c(O)c4oc(-c5ccccc5)cc(=O)c34)[C@H](c3cc(O)c(O)c4oc(-c5ccccc5)cc(=O)c34)[C@H]2C(C)(C)C1 | 1.72 µM | 9.47 µM | 0.934 µM | 13.9 µM | 0.408 µM | > 75 µM | 1.44 µM | 14.8 µM | 0.29 µM | 13.8 µM | 1.41 µM | 8.96 µM | 1.56 µM | 9.55 µM | 0.286 µM | 5.76 µM | 1.36 µM | 3.59 µM | 1.36 µM | 5.84 µM
2 | COc1cc2[nH]c(C(=O)c3cc(OC)c(OC)c(OC)c3)c(N)c2cc1C#CC1CC1 | > 100 µM | > 100 µM | 2.9 µM | > 100 µM | 3.33 µM | > 100 µM | 2.21 µM | > 100 µM | 6.65 µM | > 100 µM | 2.51 µM | > 100 µM | 4.01 µM | > 100 µM | 1.02 µM | 3.99 µM | 22.4 µM | > 100 µM | 0.622 µM | 94.5 µM
3 | Cc1ccc2[nH]c(O)c(N=Nc3ccc(S(N)(=O)=O)cc3)c2c1 | > 25 µM | > 25 µM | 10.2 µM | > 25 µM | 9.46 µM | > 25 µM | 11.9 µM | > 25 µM | 9.66 µM | > 25 µM | 4.17 µM | > 25 µM | 6.62 µM | > 25 µM | 8.46 µM | > 25 µM | 7.92 µM | > 25 µM | > 25 µM | > 25 µM
4 | C#Cc1c(I)n(C2OC(CO[Si](C)(C)C(C)(C)C)C3OC(C)(C)OC32)c(=O)[nH]c1=O (stereo not drawn) | 15.2 µM | 29.8 µM | 2.36 µM | 6.42 µM | 4.57 µM | 19.4 µM | 1.72 µM | 4.27 µM | 49.6 µM | > 100 µM | 16.9 µM | 35.6 µM | 17.8 µM | 37.6 µM | 14.4 µM | 29.4 µM | 17.7 µM | 32.5 µM | 12.4 µM | 26.1 µM
5 | COc1ccc(CC2NCCc3cc(OC)c(OC)cc32)cc1Br (stereo not drawn) | – | 45.6 µM | – | > 70.5 µM | – | > 100 µM | – | > 100 µM | – | > 100 µM | – | > 100 µM | – | > 100 µM | – | > 83.2 µM | – | 73.9 µM | – | 61.7 µM
6 | ClCc1cccc(Cn2cnc3nc(Cl)nc(Cl)c32)c1 | 2.48 µM | 7.35 µM | 0.419 µM | 1.67 µM | 0.141 µM | 0.271 µM | 0.644 µM | 2.06 µM | 6.46 µM | 19.8 µM | 16.7 µM | 35.4 µM | 1.56 µM | 3.21 µM | 0.912 µM | 2.2 µM | 1.04 µM | 3.54 µM | 1.46 µM | 2.78 µM
7 | CC(C)(C[C@H]1CN(S(=O)(=O)c2cccc(C(F)(F)F)c2)c2cc(-c3cc(F)cc(OC(F)F)c3)ccc2O1)C(=O)O | 11.5 µM | 27.3 µM | 5.02 µM | 21.5 µM | 12.4 µM | 25.3 µM | 5.04 µM | 18.9 µM | 4.85 µM | 17.9 µM | 4.38 µM | 16.4 µM | 13.2 µM | 41.7 µM | 5.31 µM | 23.4 µM | 15.2 µM | 56 µM | 3.1 µM | 16.8 µM
8 | O=C1NC(=O)C(CC2CCCCCCCCCCC2=O)C(=O)N1 (stereo not drawn) | – | > 100 µM | – | > 100 µM | – | > 100 µM | – | > 100 µM | – | > 100 µM | – | > 100 µM | – | > 100 µM | – | > 100 µM | – | > 100 µM | – | > 100 µM
9 | COc1cc(C(=O)c2cc(C)c3[nH]c4ccc(C)cc4c3c2C)cc(OC)c1OC | 4.5 µM | > 100 µM | < 0.01 µM | > 100 µM | < 0.01 µM | – | < 0.01 µM | > 100 µM | < 0.01 µM | > 100 µM | < 0.01 µM | > 21.6 µM | 0.0714 µM | > 100 µM | < 0.01 µM | – | < 0.01 µM | > 100 µM | < 0.01 µM | 5.86 µM
10 | CCSc1nc(SCC)c2cn[nH]c2n1 | 89 µM | > 100 µM | 39.5 µM | > 100 µM | 30.6 µM | > 100 µM | 39 µM | > 100 µM | 46.5 µM | > 100 µM | 42 µM | > 100 µM | 84.1 µM | > 100 µM | > 100 µM | > 100 µM | 25.6 µM | > 100 µM | 34.6 µM | > 100 µM
11 | CC/C=C\C[C@H]1C/C=C2/C(=O)C=C[C@@H]2C/C=C\CCCC(=O)O1 | 1.78 µM | 5.23 µM | 0.454 µM | 5.52 µM | 0.816 µM | 5.79 µM | 1.31 µM | 3.73 µM | 2.23 µM | 9.05 µM | 0.94 µM | 4.44 µM | 2.73 µM | 16.3 µM | 4.02 µM | 18 µM | 1.94 µM | 4.75 µM | 2.34 µM | 5.93 µM
12 | CC1(C)[C@@H](OC(N)=O)[C@H]2O[C@H]2[C@]2(C=O)[C@H]3CC[C@]4(C)[C@@H](c5ccc(=O)oc5)[C@@H](Cl)C[C@]4(O)C3=CC[C@@H]12 | 0.0059 µM | 0.0164 µM | 0.00529 µM | 0.0115 µM | 0.00437 µM | 0.00798 µM | 0.00667 µM | 0.0188 µM | 0.00442 µM | 0.00858 µM | 0.00806 µM | 0.0253 µM | 0.00555 µM | 0.0139 µM | 0.00449 µM | 0.00972 µM | 0.00432 µM | 0.00811 µM | 0.00616 µM | 0.0198 µM
13 | O=C1Nc2ccc(F)cc2/C1=C/c1ccc[nH]1 | > 25 µM | > 25 µM | 24.6 µM | > 25 µM | > 25 µM | > 25 µM | > 25 µM | > 25 µM | > 25 µM | > 25 µM | 0.787 µM | > 25 µM | 4.06 µM | > 25 µM | > 25 µM | > 25 µM | > 25 µM | > 25 µM | > 14.1 µM | > 25 µM
14 | CCn1c(-c2ccc(OC(C)=O)cc2)c(C)c2cc(OC(C)=O)ccc21 | – | 94.9 µM | – | 82.2 µM | – | 43.3 µM | – | 44.1 µM | – | 67.9 µM | – | 36.8 µM | – | 59.8 µM | – | 50.2 µM | – | > 100 µM | – | > 100 µM
15 | CN(C)C(=O)[C@H](O)[C@H](Cc1ccccc1)NC(=O)c1cc2cc(Cl)ccc2[nH]1 | 16.2 µM | 43.5 µM | 26.4 µM | > 100 µM | 33.3 µM | > 100 µM | 24.4 µM | > 89.6 µM | 24 µM | > 93.3 µM | 27.2 µM | > 87.7 µM | 25.8 µM | > 100 µM | 17.4 µM | 65.6 µM | 23 µM | > 88.2 µM | 17 µM | 56.8 µM
